In patent US9855248B2, “Polymorph of itraconazole with improved pharmaceutical properties” (The Chinese University of Hong Kong, priority 2016, dated 2018):
“Also recorded” adds a separate entry of the source.

What was measured:
[1] = type: physicochemical
Procedure: Solubilities of different polymorphs were determined by adding excess drug to 10 ml of 50% v/v aqueous ethanol in glass vials, followed by equilibration with occasional shaking at different temperatures (4° C., 10° C., 20° C., 25° C., 34° C., 40° C.) in a temperature-controlled incubator (Lovibond TC 135S, Tintometer GmbH, Dortmund, Germany) for 3 days (i.e., until equilibrium was reached). The solution was then filtered and the drug content was analyzed by UPLC (Agilent 1200 Infinity LC systems) using a UHPLC ZORBAX Eclipse Plus C18 column (2.1 mm×50 mm; 1.8 m). The mobile phase consisted of acetonitrile and 0.1% formic acid (60:40 v/v) eluted at 1 ml/min. Quantification was based on the peak area measurement by UV absorption at λ=260 nm. After the study, the residual solid in each glass vial was analyzed by DSC and XRPD to check for possible polymorphic transitions during the study. Solubility data were expressed in mole fraction as follows:
[formula] where n1 is the number of moles of solvent, and n2 is the number of moles of solute.
In addition to the enthalpy of fusion, equilibrium solubility and the related enthalpy of solution in a given solvent system can offer useful information on the bonding strength within the crystal lattice of a particular polymorph. […] According to the van't Hoff equation, the plot should be linear if the enthalpy of solution term in the equation is truly temperature-independent. […] The extrapolation of two linear plots yielded a transition temperature, Tr, of […] at the intersection point for the two polymorphs. The enthalpy, ΔHII→I, and entropy, ΔSII→I, of polymorphic transition from Form II to Form I were estimated to be −4470.8 J/mol and −5.7 J/mol·K from the slope of the log solubility ratio plot in FIG. 6B and from the relation, ΔSII→I=ΔHII→I/Tr (i.e., when ΔGII→I=0), respectively. The free energies of polymorphic transition, ΔGII→I, from Form II to Form I at 25° C. and 37° C., as defined by the equation, ΔGII→I=ΔHII→I−TΔSII→I, were calculated to be −2771 J/mol and −2703 J/mol, respectively. The solubility of Form II was about 2-3 fold higher than that of Form I in the temperature range studied.

[2] = Powder dissolution study in 50% v/v aqueous ethanol; type: physicochemical; conditions: 25° C.; for solid form of undissolved solid at end of dissolution study (DSC and XRPD): 3-day dissolution study; for initial dissolution rate (in words): initial time period
Procedure: As an alternative means to compare the solubilities of the three ITZ polymorphs, the dissolution-time profiles of these crystal forms were determined in the same solvent system. According to the Noyes Whitney equation, the dissolution rate per unit surface area of a drug solid in contact with the dissolution medium is directly proportional to its solubility under sink conditions at a constant temperature. Thus the amount of drug dissolved initially over a defined time period can provide an indirect measure of the drug solubility. […] The concentrations of Form I and Form II in dissolution media increased gradually with time and plateaued off after ˜10 h. The maximum drug concentration attained was 2-3 fold higher for Form II than for Form I, consistent with the equilibrium solubility data.
All powder samples for dissolution testing were first sieved through an 80 mesh-screen (180 μm), and only particles with sizes smaller than 180 m were used. An accurately weighed amount (20±0.2 mg) of each ITZ polymorph or ITZ amorphous powder (made by rapid melt quenching) was dispersed in 25 ml 50% v/v aqueous ethanol with continuous stirring at 100 rpm in a round bottom flask, equilibrated inside a temperature-controlled incubator (Lovibond TC 135S, Tintometer GmbH, Dortmund, Germany) at 25° C. At appropriate time intervals, a 400 μl aliquot of each solution was withdrawn, filtered through 0.22 m membrane filters, and diluted with a suitable amount of 50% v/v aqueous ethanol prior to UPLC analysis. Each sample withdrawn was replaced by the same volume of fresh dissolution medium. The method of drug content detection was the same as described in the preceding section. At the end of the dissolution study, the undissolved solid left in the medium was checked by DSC or XRPD for possible polymorphic transition.

[3] = Solid-state physical stability of Form III (annealing, ambient handling, grinding; XRPD); type: physicochemical
Procedure: X-ray powder diffraction (XRPD) data were collected using a powder X-ray diffractometer (Philips, Xpert PRO, The Netherlands) equipped with a Cu radiation source operating at 40 kV and […]. Sample was uniformly packed into a custom-made aluminum holder with a 2 mm depth and scanned from 20 of 3° to 400 at a rate of 4°/min with a step size of 0.017°.
FIGS. 2A, 2B and 2C show the XRPD patterns for the three different growth zones, respectively. […] The third zone, termed Form III, was characterized by signature peaks at approximately 11.9°, 16.7°, 17.4°, 18.7°, 19.1°, 20.0°, and 21.1°, indicative of a new crystal form, which has not been reported previously. […] The morphologies of Form I and II were similar and almost indistinguishable. Form III only existed in the bulk of recrystallized ITZ (FIG. 1C). All of the three forms grew as spherulites at temperatures below 110° C. (FIG. 1D). At temperatures above 110° C., Forms I and II grew as separate faceted crystals (FIGS. 1E and 1F), whereas Form III transformed to Form II. The latter was further substantiated by annealing Form III at 100° C. and 120° C.
Samples of ITZ polymorphs recrystallized from melt on glass coverslips were first examined by HSM. […] (FIGS. 3B and 3C). Further heating led to melting of Form II at 158° C. (FIG. 3D), and eventually melting of Form I at around 167° C. (FIG. 3E). To gain further insight into the thermal behaviors and melting properties of the different polymorphs, DSC analyses were conducted and the respective thermograms are presented in FIG. 4A. Form I melted at 165.1° C., which is in excellent agreement with the melting point of the commercial ITZ form (Form I). The melting point of Form II (155.7° C.) is the same as that described previously. The measured molar enthalpy of fusion, ΔH^f, of Form II was 60.6±1.7 kJ/mol, which is less than that (ΔH^f=68.6±1.5 kJ/mol) of Form I. The molar entropy of fusion, ΔS^f, of Form II (141±4 J/mol·K) was also less than that of Form I (ΔS^f=156±4 J/mol·K). […] At low scanning rate, e.g., 10° C./min, a small exothermic peak appeared at ˜120° C. (which possibly reflects the transition of Form III to Form II), followed by an endotherm at ˜156° C., corresponding to the melting of Form II. At higher heating rates, e.g., 40° C./min, the melting endotherm of Form III started to emerge at 119.4° C., followed by a relatively small endotherm at a higher temperature, which can be attributed to the melting of recrystallized Form II from the Form III melt. Due to the co-existence of Form III and/or its melt, this Form II was seen to melt at a lower temperature than its phase pure counterpart (m.p. ˜156° C.). […]

[4] = pH 7.4; cited from earlier work

Structure (SMILES) | molar enthalpy of solution [1] | time at which concentration in dissolution medium plateaued off [2] [h] | solid form of undissolved solid at end of dissolution study (DSC and XRPD) [2] | maximum/peak drug concentration relative to that of Form I [2] | initial dissolution rate (in words) [2] | other results
CCC(C)n1ncn(-c2ccc(N3CCN(c4ccc(OC[C@H]5CO[C@](Cn6cncn6)(c6ccc(Cl)cc6Cl)O5)cc4)CC3)cc2)c1=O (mixture of isomers) [Form I, itraconazole] | 55.8 (±2.8) kJ/mol | ~10 | maintained their original crystal structures; also recorded: remained unchanged | – | – | –
CCC(C)n1ncn(-c2ccc(N3CCN(c4ccc(OC[C@H]5CO[C@](Cn6cncn6)(c6ccc(Cl)cc6Cl)O5)cc4)CC3)cc2)c1=O (mixture of isomers) [Form II, itraconazole] | 51.3 (±2.9) kJ/mol | ~10 | maintained their original crystal structures; also recorded: remained unchanged | 2-3 fold | – | enthalpy, ΔHII→I, of polymorphic transition from Form II to Form I [1]: -4470.8 J/mol; entropy, ΔSII→I, of polymorphic transition from Form II to Form I [1]: −5.7 J/mol·K; transition temperature, Tr, of Form I and Form II [1]: 497.8 °C; solubility relative to that of Form I ([1]; 3 days): 2-3 fold
CCC(C)n1ncn(-c2ccc(N3CCN(c4ccc(OC[C@H]5CO[C@](Cn6cncn6)(c6ccc(Cl)cc6Cl)O5)cc4)CC3)cc2)c1=O (mixture of isomers) [Form III, itraconazole] | – | – | converted to Form I | about 7 fold | dissolved much more rapidly than the other two forms | phase stability on annealing (XRPD) ([3]; 100° C. for 10 hours): no such phase transition; phase stability on annealing (XRPD) ([3]; 120° C. for 10 hours): conversion to Form II; crystal structure after grinding (XRPD) ([3]; grinding with pestle and mortar): remained unchanged in crystal structure; physical stability at ambient conditions ([3]; scraping from glass coverslip for XRPD analysis): stable at ambient conditions; time of peak drug concentration [2]: ~15 h
CCC(C)n1ncn(-c2ccc(N3CCN(c4ccc(OC[C@H]5CO[C@](Cn6cncn6)(c6ccc(Cl)cc6Cl)O5)cc4)CC3)cc2)c1=O (mixture of isomers) [amorphous form, itraconazole] | – | – | converted to Form I | – | increased most rapidly | solid form of undissolved solid at end of dissolution study (DSC and XRPD) ([2]; listed as amorphous material): converted to Form I; dissolved drug concentration level after initial drop ([2]; after 50 h): equivalent to the equilibrium solubility of Form I
CCC(C)n1ncn(-c2ccc(N3CCN(c4ccc(OC[C@H]5CO[C@](Cn6cncn6)(c6ccc(Cl)cc6Cl)O5)cc4)CC3)cc2)c1=O (relative stereo) [ITZ, (2R,4S)-rel-1-(Butan-2-yl)-4-{4-[4-(4-{[(2R,4S)-2-(2,4-dichlorophenyl)-2-(1H-1,2,4-triazol-1-ylmethyl)-1,3-dioxolan-4-yl]methoxy}phenyl)piperazin-1-yl]phenyl}-4,5-dihydro-1H-1,2,4-triazol-5-one] | – | – | – | – | – | water-solubility [4]: 1 ng/mL
